pIC50, pKd: −log10 of the molar value. Several values for one entry are separate records, joined by “and”; a condition that tells them apart may be missing. Equal values may be shown once.
Key:
GTP-KRASG12D::CRAF = molecular target: T1, GTP-KRASG12D::CRAF (Homo sapiens, UniProt P01116, G12D); experiment: Alpha Screen PPI assay; type: biochemical; conditions: duplicate
T1 construct: KRAS (G12D) 1-169, N-terminal 6His-tag, C-terminal avi-tag was from Xtal; 6His-tag (N); purchased Xtal BioStructures, Inc
Description: (§1) 221 Measurements of various protein–protein interactions were performed using the Alpha
(§2) 222 Screen technology developed by Perkin Elmer. Recombinant RAS proteins (H-, N-, K-
(§3) 223 RAS variants; all KRAS variants are based on KRAS isoform 4B (uniprot id P01116-2);
(§4) 224 KRAS (G12D) 1-169, N-terminal 6His-tag, C-terminal avi-tag was from Xtal
(§5) 225 BioStructures, Inc., KRAS (G12C) 1-169, C-terminal avi-tag, biotinylated, mutations:
(§6) 226 C51S, C80L, C118S, NRAS(wt) 1-172, C-terminal avi-tag, biotinylated; HRAS(wt) 1-
(§7) 227 166, C-terminal avi-tag, biotinylated). Biotinylation was performed in vitro with
(§8) 228 recombinant BirA biotin-protein ligase as recommended by the manufacturer (Avidity
(§9) 229 LLC, Aurora, Colorado, USA). Interacting proteins such as SOS1 (564-1049, N-terminal
(§10) 230 GST-tag, TEV cleavage site), cRaf (1-303, N-terminal GST-tag, TEV cleavage site) and
(§11) 231 PI3KA- RBD (160-317, N-term-HIS_GST-tag) were expressed as glutathione S
(§12) 232 transferase (GST) fusions. Accordingly, the Alpha Screen beads were glutathione coated
(§13) 233 Alpha Lisa acceptor beads (Perkin Elmer AL 109 R) and Alpha Screen Streptavidin
(§14) 234 conjugated donor beads (Perkin Elmer 6760002L). Nucleotides were purchased from
(§15) 236 interaction assays were carried out in PBS, containing 0.1% bovine serum albumin,
(§16) 237 0,05% Tween-20 and 10 µM of the corresponding nucleotide. Assays were carried out in
(§17) 238 white ProxiPlate-384 Plus plates (Perkin Elmer #6008280) in a final volume of 20 µL. In
(§18) 239 brief, biotinylated RAS proteins (10 nM final concentration) and GST-SOS1, GST-PI3K
(§19) 240 or GST-CRAF (10 nM final) were mixed with glutathione acceptor beads (5 µg/mL final
(§20) 241 concentration) in buffer, containing the corresponding nucleotides (GDP or GTP for
(§21) 242 assays containing SOS1, only GTP for interaction assays containing PI3K or CRAF) and
(§22) 243 were incubated for 30 min at room temperature. After addition of streptavidin donor
(§23) 244 beads (5 µg/mL final concentration) under green light, the mixture was further incubated
(§24) 245 for 60 min in the dark at room temperature. Single oxygen induced fluorescence was
(§25) 246 measured at an Enspire multimode plate reader (Perkin Elmer) according to the
(§26) 247 manufacturer’s recommendations. […]

GTP-KRASG12D::PI3Kα = molecular target: T2, GTP-KRASG12D::PI3Kα (Homo sapiens, UniProt P01116, G12D); experiment: Alpha Screen PPI assay; type: biochemical; conditions: duplicate, read-out: IC50 GTP-KRASG12D::PI3K
T2 construct: KRAS (G12D) 1-169, N-terminal 6His-tag, C-terminal avi-tag was from Xtal; 6His-tag (N); purchased Xtal BioStructures, Inc
Description: as §1, §2, §3, §4, §5, §6, §7, §8, §9, §10, §11, §12, §13, §14, §15, §16, §17, §18, §19, §20, §21, §22, §23, §24, §25, §26

GTP-KRASwt::CRAF [1] = molecular target: T3, GTP-KRASwt::CRAF (Homo sapiens, UniProt P01116); experiment: Alpha Screen PPI assay; type: biochemical; conditions: Alpha Screen, duplicate
T3 construct: biotin (attachment tag not described)
Description: as §1, §2, §3, §4, §5, §6, §7, §8, §9, §10, §11, §12, §13, §14, §15, §16, §17, §18, §19, §20, §21, §22, §23, §24, §25, §26

GTP-KRASwt::CRAF [2] = experiment: Alpha Screen PPI assay; type: biochemical, human
Description: as §1, §2, §3, §4, §5, §6, §7, §8, §9, §10, §11, §12, §13, §14, §15, §16, §17, §18, §19, §20, §21, §22, §23, §24, §25, §26

GDP-KRASG12D = GDP-KRASG12D (Homo sapiens, UniProt P01116, G12D); experiment: KD(HSQC) NMR; type: binding
Description: 80 difference spectrum. Mixtures of four fragments (each at 250 µM) were incubated in 25
82 a mixture of GCP-KRASG12D and GDP-KRASG12V (each 4 µM). Binders were identified
83 by comparing pre-recorded reference spectra with the STD difference spectrum.
84 Deconvolution and confirmation of primary FBS hits obtained from STD-NMR and
85 MST was performed using 2D 1H/15N TROSY NMR experiments(2) collected on a
86 Bruker Avance III 600 MHz spectrometer equipped with a 5 mm z-gradient TCI cryo-
87 probe. Samples were prepared directly before data acquisition using a Tecan Freedom
88 Evo pipetting system and delivered by a Bruker Sample Rail to the magnet. Each sample
89 contained either 50 µM 15N labeled GDP-KRASG12D or GCP-KRASG12D in 25 mM Tris-
90 d11, 100 mM NaCl, 2 mM MgCl2, 0.5 mM TCEP pH 7.4 and 8% (v/v) D2O. Proteins […]
92 d6DMSO. Spectra were recorded with 32 transients and 64 data points in the indirect […]
100 support compound optimization. 1H/15N SoFast HMQC experiments(3) were recorded in […]
102 recorded on a Avance III 700MHz spectrometer equipped with a cryogenically cooled […]
107 DMSO. KDs were calculated from the differences in chemical shift induced by t he small […]
109 dimension were calculated according to the following equation: […]
120 (MicroCalTM, LLC Northampton, MA). Protein solutions were measured in 20 mM […]
125 were analyzed with the MicroCal PEAQ-ITC analysis software package. […]

T1 sequence (P01116 1-169 isoform P01116-2 G12D): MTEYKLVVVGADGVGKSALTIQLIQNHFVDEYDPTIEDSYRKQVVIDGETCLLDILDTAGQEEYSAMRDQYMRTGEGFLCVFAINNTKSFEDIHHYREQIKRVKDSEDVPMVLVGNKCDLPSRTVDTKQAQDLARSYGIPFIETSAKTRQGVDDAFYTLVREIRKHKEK
T3 sequence (P01116 1-188 isoform P01116-2): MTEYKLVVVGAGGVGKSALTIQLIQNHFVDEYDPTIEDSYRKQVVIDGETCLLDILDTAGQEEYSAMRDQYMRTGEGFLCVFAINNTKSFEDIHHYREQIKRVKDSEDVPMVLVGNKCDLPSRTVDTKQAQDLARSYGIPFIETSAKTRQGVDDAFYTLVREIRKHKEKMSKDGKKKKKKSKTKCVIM
T2 sequence (P01116 1-169 isoform P01116-2 G12D): as the sequence (P01116 1-169 isoform P01116-2 G12D) above
GDP-KRASG12D, sequence (P01116 1-169 isoform P01116-2 G12D): as above

Row | Compound | pIC50 (GTP-KRASG12D::CRAF) | pIC50 (GTP-KRASG12D::PI3Kα) | pIC50 (GTP-KRASwt::CRAF [1]) | selectivity of inhibition biochemically, KRAS^wt versus KRAS^G12C binding to CRAF (GTP-KRASwt::CRAF [2]) | pKd (GDP-KRASG12D)
1 | Cn1cnc(Cn2ccc3ccc(CNCc4[nH]c5ccccc5c4[C@H]4NC(=O)c5ccc(O)cc54)cc32)c1 [Compound 1] | 6.11 and 6.74 | 6.30 | 6.13 | 4 fold | 
2 | CN(C)Cc1[nH]c2ccccc2c1[C@H]1NC(=O)c2ccc(O)cc21 [Compound 18] |  |  |  |  | 4.80
